We go through nine molecules from PubChem BioAssay (NCI).

The structures appear in SMILES notation.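 Cells were grown in 96-well plates and exposed to each compound for 48 hours at five concentrations; endpoints were interpolated linearly between bracketing concentrations, or set to the highest concentration if not reached. TGI marks complete inhibition of growth.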 Some results are limits rather than exact numbers.

In general, TGI refers to the concentration at which net growth stops. Low values mean more potent growth arrest, high ones less potent growth arrest.

Among the test systems are 786-0 renal; ACHN renal; CCRF-CEM leukemia; COLO 205 colon; EKVX NSCLC; HL-60(TB) leukemia; HOP-62 NSCLC; LOX IMVI melanoma; NCI-H226 lung; RPMI-8226 leukemia; SF-268 CNS; SF-539 CNS; SK-MEL-2 melanoma; SK-MEL-28 melanoma; SK-OV-3 ovarian; SNB-75 CNS; TK-10 renal.
Experiment in all cases: DTP human tumour cell line panel, 48 h

`C[C@]12CCc3nn(-c4ccccc4)nc3C1CC[C@@H]1C2CC[C@]2(C)C(=O)CCC12` (stereo not given in full): the TGI with 786-0 renal, in the assay on ACHN renal, with CCRF-CEM leukemia, in the assay on COLO 205 colon, in the assay with EKVX NSCLC and in the assay on HL-60(TB) leukemia was greater than 100 µM in each case. The TGI in the assay with HOP-62 NSCLC, with LOX IMVI melanoma, with NCI-H226 lung, in the assay on RPMI-8226 leukemia, in the assay on SF-268 CNS and in the assay on SF-539 CNS was greater than 100 µM in each case. Moreover, the TGI in the assay on SK-MEL-2 melanoma, with SK-MEL-28 melanoma, in the assay with SK-OV-3 ovarian, in the assay with SNB-75 CNS and in the assay with TK-10 renal was greater than 100 µM throughout.

Take `CCCC(C(=O)OC)C1N=C(NC#N)N(Cc2ccccc2)C1=O` (stereo not given): the TGI in the assay with 786-0 renal, in the assay on ACHN renal, in the assay with CCRF-CEM leukemia, with COLO 205 colon, in the assay with EKVX NSCLC and with HL-60(TB) leukemia was greater than 100 µM throughout. Besides, the TGI with HOP-62 NSCLC, in the assay on LOX IMVI melanoma, in the assay on RPMI-8226 leukemia, with SF-268 CNS, in the assay with SK-MEL-2 melanoma and in the assay on SK-MEL-28 melanoma was greater than 100 µM each time. Besides, the TGI was greater than 100 µM in the assay with SK-OV-3 ovarian, 81.1 µM in the assay with SNB-75 CNS and greater than 100 µM in the assay on TK-10 renal.

For `CC(N)C(C)c1ccccc1` (stereo not given), the TGI in the assay with 786-0 renal, in the assay with ACHN renal, in the assay with CCRF-CEM leukemia, in the assay with COLO 205 colon, with EKVX NSCLC and in the assay with HL-60(TB) leukemia was greater than 100 µM throughout. The TGI with HOP-62 NSCLC, in the assay on LOX IMVI melanoma, in the assay on NCI-H226 lung, in the assay with RPMI-8226 leukemia, in the assay on SF-268 CNS and with SF-539 CNS was greater than 100 µM throughout. In addition, the TGI in the assay on SK-MEL-2 melanoma, in the assay with SK-MEL-28 melanoma, with SK-OV-3 ovarian, in the assay on SNB-75 CNS and in the assay on TK-10 renal was greater than 100 µM each time.

Turning to `COc1ccc(-c2cc(=O)c3cc(O)ccc3o2)c(OC)c1OC`, the TGI was greater than 100 µM in the assay on 786-0 renal; 93.6 µM in the assay on ACHN renal; 70.6 µM in the assay on CCRF-CEM leukemia; greater than 100 µM in the assay on COLO 205 colon; greater than 100 µM in the assay on EKVX NSCLC; 37.2 µM in the assay with HL-60(TB) leukemia. Besides, the TGI was greater than 100 µM with HOP-62 NSCLC; 57.1 µM in the assay on LOX IMVI melanoma; greater than 100 µM in the assay with NCI-H226 lung; 32.8 µM in the assay on RPMI-8226 leukemia; 93 µM in the assay on SF-268 CNS; greater than 100 µM in the assay on SF-539 CNS. In addition, the TGI with SK-MEL-2 melanoma was greater than 100 µM; in the assay on SK-MEL-28 melanoma, greater than 100 µM; in the assay on SK-OV-3 ovarian, 99.1 µM; in the assay with SNB-75 CNS, 76.5 µM; in the assay with TK-10 renal, greater than 100 µM.

Regarding `CC(C)C(CCOS(=O)(=O)O)CCC(C)[C@H]1[C@@H](O)C(O)C2[C@]3(O)C[C@@H](O)C4(O)C[C@@H](O)CC[C@]4(C)C3CC[C@@]21C` (stereo not given in full), the TGI with 786-0 renal, in the assay with ACHN renal, in the assay on CCRF-CEM leukemia, in the assay on COLO 205 colon, with EKVX NSCLC and in the assay on HL-60(TB) leukemia was greater than 100 µM throughout. Besides, the TGI with HOP-62 NSCLC, with LOX IMVI melanoma, in the assay with NCI-H226 lung, in the assay on RPMI-8226 leukemia, with SF-268 CNS and in the assay on SF-539 CNS was greater than 100 µM each time. For the same molecule, the TGI in the assay with SK-MEL-2 melanoma, in the assay on SK-MEL-28 melanoma, with SK-OV-3 ovarian and in the assay with TK-10 renal was greater than 100 µM throughout.

On to `N#C/C(=C\c1ccc[nH]1)C(=O)c1ccccc1`, for which the total growth inhibition concentration (TGI) in the assay with 786-0 renal, in the assay with ACHN renal, in the assay on CCRF-CEM leukemia, with COLO 205 colon, in the assay on EKVX NSCLC and in the assay on HL-60(TB) leukemia was greater than 100 µM throughout. The TGI in the assay on HOP-62 NSCLC, with LOX IMVI melanoma, with NCI-H226 lung, with RPMI-8226 leukemia, in the assay with SF-268 CNS and in the assay with SF-539 CNS was greater than 100 µM throughout. Also, the TGI with SK-MEL-2 melanoma, in the assay with SK-MEL-28 melanoma, in the assay with SK-OV-3 ovarian, with SNB-75 CNS and in the assay on TK-10 renal was greater than 100 µM in each case.

Take `Cn1c(=O)n(C2(C)CSC2)c2ccccc21`: the TGI in the assay with 786-0 renal, with ACHN renal, in the assay on CCRF-CEM leukemia, in the assay with COLO 205 colon, in the assay on EKVX NSCLC and with HL-60(TB) leukemia was greater than 100 µM each time. The TGI with HOP-62 NSCLC, in the assay on LOX IMVI melanoma, with NCI-H226 lung, with RPMI-8226 leukemia, in the assay with SF-268 CNS and in the assay with SF-539 CNS was greater than 100 µM in each case. Besides, the TGI in the assay on SK-MEL-28 melanoma, in the assay on SK-OV-3 ovarian, with SNB-75 CNS and in the assay on TK-10 renal was greater than 100 µM in each case.

`CCN(/N=C1\CC2C=CCN(C2)C(=O)Cc2c1[nH]c1ccccc21)S(=O)(=O)c1ccc(C)cc1` (stereo not given): the TGI in the assay on 786-0 renal, in the assay on ACHN renal, in the assay on CCRF-CEM leukemia, in the assay with COLO 205 colon, with EKVX NSCLC and in the assay with HL-60(TB) leukemia was greater than 100 µM in each case. For the same molecule, the TGI in the assay with LOX IMVI melanoma was greater than 100 µM; in the assay on NCI-H226 lung, 38.6 µM; in the assay on RPMI-8226 leukemia it was greater than 100 µM; in the assay on SF-539 CNS, greater than 100 µM; with SK-MEL-2 melanoma it was greater than 100 µM; in the assay on SNB-75 CNS it was greater than 100 µM. This molecule gave a TGI with TK-10 renal greater than 100 µM.

For the molecule `C/C(CCN(C)C)=N\OC(=O)c1ccccc1`, the TGI with 786-0 renal, in the assay on ACHN renal, in the assay with CCRF-CEM leukemia, with COLO 205 colon, in the assay with EKVX NSCLC and in the assay with HL-60(TB) leukemia was greater than 100 µM in each case. The TGI in the assay with HOP-62 NSCLC, in the assay with LOX IMVI melanoma, in the assay with NCI-H226 lung, in the assay on RPMI-8226 leukemia, with SF-268 CNS and in the assay with SF-539 CNS was greater than 100 µM throughout. Further, the TGI with SK-MEL-2 melanoma, in the assay with SK-MEL-28 melanoma, in the assay on SK-OV-3 ovarian, in the assay on SNB-75 CNS and with TK-10 renal was greater than 100 µM each time.
